For experiment [1], the target named is intracellular GCN2 (phosphorylation of the GCN2 substrate eIF2α) (Homo sapiens, UniProt Q9P2K8). The experiment can be described thus: GCN2 cellular inhibition assay (AlphaScreen SureFire P-eIF2α Ser51, borrelidin-treated U2OS cells). It counts as cell-based. How it is done:
Compounds can be screened for their ability to inhibit intracellular GCN2 using an AlphaScreen assay (Perkin Elmer) to detect phosphorylation of the GCN2 substrate eIF2α in borrelidin-treated cells. U2OS cells are plated at 5,000 cells per well in 384-well white polystyrene plates (Corning 3570) in McCoy's 5 A media (GIBCO 26600-023) supplemented with 10% foetal bovine serum (SAFC 12103C), Penicillin/Streptomycin solution diluted 1:100 (Sigma P0781), and 2 mM L-glutamine (Sigma G7513), and allowed to adhere overnight at 37° C. in 5% CO2. Compounds are then added to the cell media from a final concentration of 40 μM in 4-fold serial dilutions. Borrelidin (FluoroChem M01440) is immediately added to the wells to a final concentration of 10 μM and the cells are incubated for 1 h at 37° C. in 5% CO2. After 1 h of treatment with borrelidin, the media is removed, and the cells are lysed with lysis buffer (TGR BioSciences TGRLB) at ambient temperature.
An AlphaScreen SureFire P-eIF2α (Ser51) assay kit (Perkin Elmer TGREIF2S) was used to measure levels of eIF2α phosphorylated on Serine 51. Anti-phosphorylated eIF2α Ser51 antibody-linked acceptor beads (TGR BioScience 6760617) are added to the cell homogenate (diluted 1:250 into a mixture of activation (TGR BioScience TGRAB) and reaction buffer (TGR BioScience TGREIF2S) prepared immediately before use). The plate is then incubated for 2 h at ambient temperature in the dark. Anti-eIF2α antibody-linked donor beads (TGR BioScience 6760617) were then added (diluted 1:100 in dilution buffer (TGR BioScience TGRDB) prepared immediately before use). The plate is then incubated overnight at ambient temperature in the dark.
Plates are analyzed on an Alpha Technology-compatible PHERAstar FS plate reader (BMG Labtech Version 1.14) to quantify phosphorylated eIF2α Ser51 levels. The percentage inhibition of phosphorylated eIF2α is calculated by comparison to control wells stimulated with borrelidin alone.
(Alpha assays give light when donor and acceptor beads are brought close together.)

Experiment [2] concerns the target GCN2 kinase (Homo sapiens, UniProt Q9P2K8). As to the kind of experiment: GCN2 enzyme inhibition assay (Transcreener ADP2 fluorescence polarization). It counts as biochemical. The note with it: 280 μM ATP. Put shortly:
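Run at 25 °C in 25 mM Tris-HCl pH 7.5, 50 mM NaCl, 10 mM MgCl2, 1 mM DTT with 4 nM GCN2, 280 μM ATP and 200 μM (RS)7 peptide; compound (0–8 μM final) preincubated 10 min, reaction 1 h. ADP read by antibody/tracer FP; IC50 and Ki(app) from tight-binding fit.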
(Polarisation of emitted light reports the rotation of a fluorescent probe.)

Setting [3] is: compounds of Formula IV, biomarker assay, phosphorylated eIF2α Ser51 in borrelidin-treated U2OS cells.
Where [4] appears, read: Enzyme activity for compounds of Formula IV, Ki(app), 25° C.
Setting [5] is: compounds of Formula V, U2OS cells, 10 μM borrelidin, 1 h, read-out: GCN2 Biomarker (IC50).
[6] abbreviates: compounds of Formula V, 4 nM GCN2 kinase.
[7] abbreviates: compounds of Formula II, biomarker assay, phosphorylated eIF2α Ser51 in borrelidin-treated U2OS cells.
Setting [8] is: compounds of Formula II, 4 nM GCN2 kinase.

This is an account of results in patent US10988477B2 (Merck Patent GmbH, priority 2018, dated 2021).

By IC50 is commonly meant the concentration that gives 50% inhibition.

Like-named read-outs stand apart in the source and are kept apart here. Bounds are passed on as bounds.

Sequence of GCN2 kinase (Q9P2K8 whole entry): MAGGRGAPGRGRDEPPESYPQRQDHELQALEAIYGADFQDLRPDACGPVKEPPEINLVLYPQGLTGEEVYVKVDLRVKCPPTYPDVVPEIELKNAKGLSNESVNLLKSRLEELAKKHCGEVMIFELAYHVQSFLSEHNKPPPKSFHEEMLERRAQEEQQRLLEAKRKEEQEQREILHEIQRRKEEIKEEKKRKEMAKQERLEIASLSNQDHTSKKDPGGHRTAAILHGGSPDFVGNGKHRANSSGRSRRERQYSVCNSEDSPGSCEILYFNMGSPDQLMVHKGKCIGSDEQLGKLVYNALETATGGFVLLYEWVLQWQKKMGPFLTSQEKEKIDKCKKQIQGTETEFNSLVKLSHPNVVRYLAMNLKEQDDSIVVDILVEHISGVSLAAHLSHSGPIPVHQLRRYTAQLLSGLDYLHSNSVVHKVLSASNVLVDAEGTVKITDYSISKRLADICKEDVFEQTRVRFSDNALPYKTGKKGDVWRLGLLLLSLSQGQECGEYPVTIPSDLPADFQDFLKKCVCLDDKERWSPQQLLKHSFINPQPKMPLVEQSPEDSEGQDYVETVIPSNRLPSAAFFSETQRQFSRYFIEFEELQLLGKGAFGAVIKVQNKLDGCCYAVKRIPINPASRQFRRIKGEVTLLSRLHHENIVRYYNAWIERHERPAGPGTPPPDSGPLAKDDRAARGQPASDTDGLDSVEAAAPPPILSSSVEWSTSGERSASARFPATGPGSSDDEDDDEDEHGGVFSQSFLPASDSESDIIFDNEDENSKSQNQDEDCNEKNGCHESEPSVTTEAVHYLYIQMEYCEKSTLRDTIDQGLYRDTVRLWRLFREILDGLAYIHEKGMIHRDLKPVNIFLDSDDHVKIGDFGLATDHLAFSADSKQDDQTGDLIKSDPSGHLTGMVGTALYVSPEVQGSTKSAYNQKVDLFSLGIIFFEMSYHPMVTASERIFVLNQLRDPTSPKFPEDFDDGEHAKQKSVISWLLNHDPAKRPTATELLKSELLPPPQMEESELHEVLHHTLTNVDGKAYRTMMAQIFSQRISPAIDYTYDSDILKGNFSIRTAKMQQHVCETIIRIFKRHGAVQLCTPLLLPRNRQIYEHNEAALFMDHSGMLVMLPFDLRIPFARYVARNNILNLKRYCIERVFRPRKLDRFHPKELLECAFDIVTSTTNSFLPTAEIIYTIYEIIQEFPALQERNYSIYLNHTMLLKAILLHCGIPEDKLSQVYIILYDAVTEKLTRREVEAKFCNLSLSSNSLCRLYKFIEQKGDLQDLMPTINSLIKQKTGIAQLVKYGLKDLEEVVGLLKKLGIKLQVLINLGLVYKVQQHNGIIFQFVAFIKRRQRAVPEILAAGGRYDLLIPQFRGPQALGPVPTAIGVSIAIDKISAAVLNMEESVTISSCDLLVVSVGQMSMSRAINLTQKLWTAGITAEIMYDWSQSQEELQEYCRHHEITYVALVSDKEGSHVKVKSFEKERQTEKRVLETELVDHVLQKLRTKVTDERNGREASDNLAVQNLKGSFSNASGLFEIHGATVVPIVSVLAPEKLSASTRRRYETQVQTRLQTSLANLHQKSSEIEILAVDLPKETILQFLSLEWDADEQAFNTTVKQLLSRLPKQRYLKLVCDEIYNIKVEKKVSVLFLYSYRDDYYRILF
Sequence of intracellular GCN2 (phosphorylation of the GCN2 substrate eIF2α) (Q9P2K8 whole entry): as above

`CS(C)(=O)=N[C@@H]1C[C@@H](c2cn[nH]c2)CN(c2ccnc(-c3cnc4cnc(C(F)(F)F)cn34)n2)C1` (racemic) [IV-394] had a concentration for half-maximal inhibition (IC50) in experiment [1] (setting [3]) of more than 5000 nM. For the same molecule, the Ki in experiment [2] (setting [4]) was in the range of 100 to 1000 nM.

`C[C@H]1[C@@H](c2cn[nH]c2)NCCN1c1ccnc(-c2cnc3cnc(C4CC4)cn23)n1` (racemic) [IV-411, Cis-6-Cyclopropyl-3-(4-(2-methyl-3-(1H-pyrazol-4-yl)piperazin-1-yl)pyrimidin-2-yl)imidazo[1,2-a]pyrazine] displayed a 50% inhibitory concentration (IC50) in experiment [1] (setting [3]) of 500 to 5000 nM. In experiment [2] (setting [4]), this molecule gave a Ki of 10 to 100 nM.

In experiment [1] (setting [3]), `C[C@H]1[C@@H](c2cn[nH]c2)CCCN1c1ccnc(-c2cnc3cnc(Br)cn23)n1` (relative stereo) [IV-387, Cis-6-Bromo-3-(4-(2-methyl-3-(1H-pyrazol-4-yl)piperidin-1-yl)pyrimidin-2-yl)imidazo[1,2-a]pyrazine] came in with a half-inhibitory concentration (IC50) of less than 500 nM. Besides, in experiment [2] (setting [4]), the Ki is less than 10 nM.

In experiment [1] (setting [3]), `CCN1CCN(c2ccnc(-c3cnc4cnc(Br)cn34)n2)[C@@H](c2cn[nH]c2)[C@H]1C` (relative stereo) [IV-391, Cis-6-Bromo-3-(4-(4-ethyl-3-methyl-2-(1H-pyrazol-4-yl)piperazin-1-yl)pyrimidin-2-yl)imidazo[1,2-a]pyrazine] yielded an IC50 of 500 to 5000 nM. For the same molecule, the Ki in experiment [2] (setting [4]) is 100 to 1000 nM.

For `C[C@H]1[C@@H](c2cn[nH]c2)N(C)CCN1c1ccnc(-c2cnc3cnc(Br)cn23)n1` (relative stereo) [IV-392, Cis-6-Bromo-3-(4-(2,4-dimethyl-3-(1H-pyrazol-4-yl)piperazin-1-yl)pyrimidin-2-yl)imidazo[1,2-a]pyrazine], the half-inhibitory concentration (IC50) in experiment [1] (setting [3]) was less than 500 nM. In experiment [2] (setting [4]), this molecule showed a Ki of less than 10 nM.

With `CC1CN(c2ccnc(-c3cnc4sc(C(F)(F)F)cn34)n2)C(C)C(c2cn[nH]c2)N1` (single isomer, unassigned) [Compound V-11, 5-[4-[2,5-Dimethyl-3-(1H-pyrazol-4-yl)piperazin-1-yl]pyrimidin-2-yl]-2-(trifluoromethyl)imidazo[2,1-b]thiazole], the IC50 in experiment [1] (setting [5]) is less than 500 nM. The same molecule registered a Ki in experiment [2] (setting [6]) of less than 10 nM.

For `CC1CN(c2ccnc(-c3cnc4sc(C(F)(F)F)cn34)n2)C(C)C(c2cn[nH]c2)N1` (single isomer, unassigned) [Compound V-12, 5-[4-[2,5-Dimethyl-3-(1H-pyrazol-4-yl)piperazin-1-yl]pyrimidin-2-yl]-2-(trifluoromethyl)imidazo[2,1-b]thiazole], in experiment [1] (setting [5]), the IC50 lay within 500 to 5000 nM. The molecule also had a Ki in experiment [2] (setting [6]) of 100 to 1000 nM.

The molecule `CS(=O)(=O)NCC1CN(c2cc(-c3cnc4ccc(C(F)F)nn34)ncn2)CCC1(F)F` (single isomer, unassigned) [II-1, N-((1-(6-(6-(Difluoromethyl)imidazo[1,2-b]pyridazin-3-yl)pyrimidin-4-yl)-4,4-difluoropiperidin-3-yl)methyl)methanesulfonamide] gave an IC50 in experiment [1] (setting [7]) of 500 to 5000 nM. Also, in experiment [2] (setting [8]), the Ki was 10 to 1000 nM.

For the molecule `CS(=O)(=O)NCC1CN(c2cc(-c3cnc4ccc(C(F)F)nn34)ncn2)CCC1(F)F` (single isomer, unassigned) [II-2, N-((1-(6-(6-(Difluoromethyl)imidazo[1,2-b]pyridazin-3-yl)pyrimidin-4-yl)-4,4-difluoropiperidin-3-yl)methyl)methanesulfonamide], the IC50 in experiment [1] (setting [7]) lay within 500 to 5000 nM. Moreover, the Ki in experiment [2] (setting [8]) is less than 10 nM.

`CC1(O)CC(CNS(C)(=O)=O)CN(c2cc(-c3cnc4ccc(C(F)F)nn34)ncn2)C1` (single isomer, unassigned) [II-5, N-((1-(6-(6-(Difluoromethyl)imidazo[1,2-b]pyridazin-3-yl)pyrimidin-4-yl)-5-hydroxy-5-methylpiperidin-3-yl)methyl)methanesulfonamide] returned an IC50 in experiment [1] (setting [7]) of more than 5000 nM. This molecule also gave a Ki in experiment [2] (setting [8]) of 10 to 1000 nM.

`CC1(O)CC(CNS(C)(=O)=O)CN(c2cc(-c3cnc4ccc(C(F)F)nn34)ncn2)C1` (single isomer, unassigned) [II-6, N-((1-(6-(6-(Difluoromethyl)imidazo[1,2-b]pyridazin-3-yl)pyrimidin-4-yl)-5-hydroxy-5-methylpiperidin-3-yl)methyl)methanesulfonamide] had a half-maximal inhibitory concentration (IC50) in experiment [1] (setting [7]) of 500 to 5000 nM. In experiment [2] (setting [8]), this molecule displayed a Ki of 10 to 1000 nM.

`CS(=O)(=O)NC1CCC2(CCN(c3cc(-c4cnc5ccc(C(F)F)nn45)ncn3)C2)C1` (single isomer, unassigned) [II-95, N-(2-(6-(6-(Difluoromethyl)imidazo[1,2-b]pyridazin-3-yl)pyrimidin-4-yl)-2-azaspiro[4.4]nonan-7-yl)methanesulfonamide] came in with an IC50 in experiment [1] (setting [7]) of 500 to 5000 nM. The same molecule returned a Ki in experiment [2] (setting [8]) of 10 to 1000 nM.

In experiment [1] (setting [7]), `CS(=O)(=O)NC1CCC2(CCN(c3cc(-c4cnc5ccc(C(F)F)nn45)ncn3)C2)C1` (single isomer, unassigned) [II-100, N-(2-(6-(6-(Difluoromethyl)imidazo[1,2-b]pyridazin-3-yl)pyrimidin-4-yl)-2-azaspiro[4.4]nonan-7-yl)methanesulfonamide] had a half-inhibitory concentration (IC50) of 500 to 5000 nM. In addition, the Ki in experiment [2] (setting [8]) fell in the range of 10 to 1000 nM.

`FC(F)(F)c1ccc2ncc(-c3ccnc(N4CCOC(c5cn[nH]c5)C4)c3)n2n1` (single isomer, unassigned) [II-229, 2-(1H-Pyrazol-4-yl)-4-(4-(6-(trifluoromethyl)imidazo[1,2-b]pyridazin-3-yl)pyridin-2-yl)morpholine]: the half-inhibitory concentration (IC50) in experiment [1] (setting [7]) is less than 500 nM. This molecule also returned a Ki in experiment [2] (setting [8]) of less than 10 nM.

The molecule `FC(F)(F)c1ccc2ncc(-c3ccnc(N4CCOC(c5cn[nH]c5)C4)c3)n2n1` (single isomer, unassigned) [II-230, 2-(1H-Pyrazol-4-yl)-4-(4-(6-(trifluoromethyl)imidazo[1,2-b]pyridazin-3-yl)pyridin-2-yl)morpholine] registered a 50% inhibitory concentration (IC50) in experiment [1] (setting [7]) of less than 500 nM. This molecule displayed a Ki in experiment [2] (setting [8]) of less than 10 nM.

For the molecule `COC1CC(CNS(C)(=O)=O)CN(c2cc(-c3cnc4ccc(C(F)F)nn34)ncn2)C1` (single isomer, unassigned) [II-233, N-((1-(6-(6-(Difluoromethyl)imidazo[1,2-b]pyridazin-3-yl)pyrimidin-4-yl)-5-methoxypiperidin-3-yl)methyl)methanesulfonamide], the IC50 in experiment [1] (setting [7]) is less than 500 nM. This molecule also had a Ki in experiment [2] (setting [8]) of less than 10 nM.

Consider `FC(F)c1ccc2ncc(-c3cc(C4CCCN(C5COC5)C4)ncn3)n2n1` (single isomer, unassigned) [II-241, 6-(Difluoromethyl)-3-(6-(1-(oxetan-3-yl)piperidin-3-yl)pyrimidin-4-yl)imidazo[1,2-b]pyridazine], for which the IC50 in experiment [1] (setting [7]) is more than 5000 nM. In addition, in experiment [2] (setting [8]), the Ki is more than 1000 nM.

The molecule `FC(F)c1ccc2ncc(-c3cc(C4CCCN(C5COC5)C4)ncn3)n2n1` (single isomer, unassigned) [II-242, 6-(Difluoromethyl)-3-(6-(1-(oxetan-3-yl)piperidin-3-yl)pyrimidin-4-yl)imidazo[1,2-b]pyridazine] showed a 50% inhibitory concentration (IC50) in experiment [1] (setting [7]) of more than 5000 nM. Also, in experiment [2] (setting [8]), the Ki lay in the range of 10 to 1000 nM.

`CC1C(CNS(C)(=O)=O)CCCN1c1cc(-c2cnc3ccc(C(F)F)nn23)ncn1` (single isomer, unassigned) [II-263, N-((1-(6-(6-(Difluoromethyl)imidazo[1,2-b]pyridazin-3-yl)pyrimidin-4-yl)-2-methylpiperidin-3-yl)methyl)methanesulfonamide] gave a half-inhibitory concentration (IC50) in experiment [1] (setting [7]) of 500 to 5000 nM. The Ki in experiment [2] (setting [8]) is 10 to 1000 nM.

In the case of `CC1C(CNS(C)(=O)=O)CCCN1c1cc(-c2cnc3ccc(C(F)F)nn23)ncn1` (single isomer, unassigned) [II-264, N-((1-(6-(6-(Difluoromethyl)imidazo[1,2-b]pyridazin-3-yl)pyrimidin-4-yl)-2-methylpiperidin-3-yl)methyl)methanesulfonamide], the IC50 in experiment [1] (setting [7]) was more than 5000 nM. In addition, the Ki in experiment [2] (setting [8]) is 10 to 1000 nM.

`CC1C(CNS(C)(=O)=O)CCCN1c1cc(-c2cnc3ccc(C(F)F)nn23)ncn1` (single isomer, unassigned) [II-265, N-((1-(6-(6-(Difluoromethyl)imidazo[1,2-b]pyridazin-3-yl)pyrimidin-4-yl)-2-methylpiperidin-3-yl)methyl)methanesulfonamide] displayed a concentration for half-maximal inhibition (IC50) in experiment [1] (setting [7]) of more than 5000 nM. In experiment [2] (setting [8]), this molecule gave a Ki of 10 to 1000 nM.
